# Experiments:
# [1] = system: Aβ and tau deposits; assay: Staining of AD brain sections with PBB3 alone; format: binding, human; conditions: 100 nM PBB3 alone in PBS pH 7.4, FIG. 6A
# Protocol: Frozen brain sections (20 μm) were fixed in 96% EtOH, rehydrated in 50% EtOH and de-ionized water and then incubated in phosphate buffered saline (PBS, 10 mM phosphate, 140 mM NaCl, 2.7 mM KCl, pH 7.4) for 10 min. The sections were stained with solutions containing 100 nM PBB3 in PBS for 30 min and after rinsing three times with PBS mounted with Dako fluorescent mounting medium (Dako Cytomation, Glostrup, Denmark). The mounting medium was allowed to solidify over night before collecting emission spectra of the compound bound to misfolded Aβ and tau using an inverted LSM 780 confocal microscope (Carl Zeiss, Oberkochen, Germany) with excitation wavelengths at 405 nm (PBB3).
# [2] = system: Aβ and tau deposits; assay: Co-staining of AD brain sections with PBB3 and Example Compound 3b; format: binding, human; conditions: simultaneous 100 nM PBB3 and 100 nM Example Compound 3b
# Protocol: Frozen brain sections (20 μm) were fixed in 96% EtOH, rehydrated in 50% EtOH and de-ionized water and then incubated in phosphate buffered saline (PBS, 10 mM phosphate, 140 mM NaCl, 2.7 mM KCl, pH 7.4) for 10 min. Solutions containing 100 nM PBB3 and 100 nM Example Compound 3b or 100 nM q-FTAA-CN and 100 nM Example Compound 3a in PBS were added to the sections. After 30 min, the sections were washed with PBS and mounted with Dako fluorescent mounting medium (Dako Cytomation, Glostrup, Denmark). The mounting medium was allowed to solidify over night before collecting emission spectra of the compounds bound to misfolded A ? and tau using an inverted LSM 780 confocal microscope (Carl Zeiss, Oberkochen, Germany) with excitation wavelengths at 405 nm (PBB3 and q-FTAA-CN) and 561 nm (Example Compound 3a and Example Compound 3b).
# [3] = target: T1, tau aggregates (Homo sapiens, UniProt P10636); assay: Example Compound 3b staining of AD brain sections pre-incubated with PBB3 or PBS; format: binding
# T1 construct: tissue sections (20 μm) from human AD brain; from tissue; host or cells: human AD brain tissue sections (20 μm)
# Protocol: (§1) Frozen brain sections (20 μm) were fixed in 96% EtOH, rehydrated in 50% EtOH and de-ionized water and then incubated in phosphate buffered saline (PBS, 10 mM phosphate, 140 mM NaCl, 2.7 mM KCl, pH 7.4) for 10 min. The sections were stained with solutions containing 1 ? M PBB3 or 1 ? M q-FTAA-CN in PBS for 30 min and after rinsing three times with PBS, the sections was stained with a solution containing 10 nM Example Compound 3b. After 30 min, the sections were washed with PBS and mounted with Dako fluorescent mounting medium (Dako Cytomation, Glostrup, Denmark). The mounting medium was allowed to solidify over night before collecting emission spectra of the compounds bound to misfolded Aβ and tau using an inverted LSM 780 confocal microscope (Carl Zeiss, Oberkochen, Germany) with excitation wavelengths at 405 nm (PBB3 and q-FTAA-CN) and 561 nm (Example Compound 3b).
# [4] = target: T2, Aβ aggregates (Homo sapiens, UniProt P05067); assay: Compound and antibody 4G8 double staining of AD brain tissue sections; format: binding; conditions: for Overlap between Fluorescence from tested compound and fluorescence from 4G8 observed / Fluorescence from tested compound observed: 100 nM compound, human AD brain tissue sections; for Overlap between Fluorescence from tested compound and fluorescence from 4G8 observed: Aβ antibody 4G8; for Fluorescence from tested compound observed: double staining with Aβ antibody 4G8; for Fluorescence from 4G8 observed: signal of Aβ antibody 4G8 in the section stained with 100 nM of the compound
# T2 construct: compound and antibody double staining of Aβ or tau aggregates; from tissue; host or cells: human AD brain tissue sections (20 μm)
# Protocol: (§2) To achieve compound and antibody double staining of Aβ or tau aggregates, tissue sections (20 μm) from human AD brain were fixed in 70% EtOH at 4° C. for 3 min, rehydrated in distilled water and then incubated in PBS for 30 min. Sections were blocked and permeabilized in PBS with 5% normal goat serum and 0.1% triton X-100 (blocking buffer) for 1 h at room temperature (RT). Antibody 4G8 (Biolegend, San Diego, Calif., USA) reactive to Aβ, and AT100 (Thermo Fisher Scientific, Waltham, Mass., USA) directed against tau phosphorylated at […] (3) were diluted 1:500 and 1:1000, respectively, in blocking buffer and added to the sections. After 16 h incubation at 4° C. unbound antibody was removed by washing in PBS with 0.1% triton X-100 (PBS-T) 3×10 min. To visualize antibody binding to Aβ or tau aggregates sections were incubated with goat anti-mouse secondary antibody labelled with Alexa 647 (Thermo Fisher Scientific). The antibody was diluted 1:200 in blocking buffer and after 1 h incubation at RT sections were washed in PBS 3×10 min. Example Compound 3a, Example Compound 3b, Example Compound 3c, Example Compound 3d, Example Compound 3e, Example Compound 3f, Example Compound 3g, Example Compound 3h, Example Compound 3i, Example Compound 3j, Example Compound 3k, Example Compound 3m, Example Compound 3n, Example Compound 3o, Example Compound 3p, Example Compound 3q, Example Compound 3r, Example Compound 3s, Example Compound 3t, Example Compound 3u, Example Compound 8a, Comparative Example 1, Comparative Example 2, Comparative Example 3 and Comparative Example 4 were dissolved in DMSO to a concentration of 1.5 mM and then further diluted in PBS to a final concentration of 100 nM compound prior to staining. The tissue sections were then stained for 30 min at RT with these freshly prepared solutions containing 100 nM of the respective compound in PBS. After three washes in PBS the sections were mounted in Dako mounting medium for fluorescence (Dako Cytomation, Glostrup, Denmark) and allowed to dry overnight before analysis. Fluorescence images were collected using an inverted LSM 780 confocal microscope (Carl Zeiss, Oberkochen, Germany) with the following excitation/emission wavelengths optimized for each compound: 458/484-600 (Comparative Example 1, Comparative Example 3), 561/569-648 (Example Compound 3a, Example Compound 3b, Example Compound 3c, Example Compound 3d, Example Compound 3e, Example Compound 3f, Example Compound 3g, Example Compound 3h, Example Compound 3i, Example Compound 3j, Example Compound 3k, Example Compound 3m, Example Compound 3n, Example Compound 3o, Example Compound 3p, Example Compound 3q, Example Compound 3r, Example Compound 3s, Example Compound 3t, Example Compound 3u, Example Compound 8a, Comparative Example 2 and Comparative Example 4) and 633/638-755 (Alexa 647). To visualize autofluorescent lipofuscin excitation/emission wavelengths 405/410-480 or 405/410-514 were used.
# [5] = Excitation and emission spectra of compounds in DMSO or PBS; format: physicochemical; conditions: 300 nM in DMSO or PBS pH 7.4
# Protocol: Stock solutions of Example Compound 3a, Example Compound 3b, Example Compound 3c, Example Compound 3d and Example Compound 8a (1.5 mM in DMSO) were diluted to 300 nM in phosphate buffered saline (PBS, 10 mM phosphate, 140 mM NaCl, 2.7 mM KCl, pH 7.4) or DMSO. Excitation and emission spectra of the compounds were collected using an Infinite M1000 Pro microplate reader (Tecan, Männedorf, Switzerland).
# [6] = target: T1, tau aggregates; assay: Compound and antibody AT100 double staining of AD brain tissue sections; format: binding; conditions: for Labelling of immune-positive NFTs and dystrophic neurites / Fluorescence from tested compound observed / Overlap between Fluorescence from tested compound and fluorescence from AT-100 observed: 100 nM compound; for Labelling of immune-positive NFTs and dystrophic neurites: AT100 co-staining, AD brain sections; for Fluorescence from tested compound observed / Overlap between Fluorescence from tested compound and fluorescence from AT-100 observed: human AD brain tissue sections; for Fluorescence from tested compound observed: double staining with tau antibody AT-100; for Overlap between Fluorescence from tested compound and fluorescence from AT-100 observed: tau antibody AT-100; for Fluorescence from AT-100 observed: signal of tau antibody AT-100 in the section stained with 100 nM of the compound
# Protocol: as §2
# [7] = target: T1, tau aggregates; assay: Example Compound 3b staining of AD brain sections pre-incubated with q-FTAA-CN; format: binding; conditions: FIG. 7H, pre-incubated with 1 μM q-FTAA-CN, then 10 nM Example Compound 3b
# Protocol: as §1
# [8] = FIG. 7F, pre-incubated with 1 μM PBB3, then 10 nM Example Compound 3b
# T2 sequence (P05067 672-713 limits assumed): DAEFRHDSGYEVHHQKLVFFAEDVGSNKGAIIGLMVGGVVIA
# T1 sequence (P10636 1-441 isoform P10636-8): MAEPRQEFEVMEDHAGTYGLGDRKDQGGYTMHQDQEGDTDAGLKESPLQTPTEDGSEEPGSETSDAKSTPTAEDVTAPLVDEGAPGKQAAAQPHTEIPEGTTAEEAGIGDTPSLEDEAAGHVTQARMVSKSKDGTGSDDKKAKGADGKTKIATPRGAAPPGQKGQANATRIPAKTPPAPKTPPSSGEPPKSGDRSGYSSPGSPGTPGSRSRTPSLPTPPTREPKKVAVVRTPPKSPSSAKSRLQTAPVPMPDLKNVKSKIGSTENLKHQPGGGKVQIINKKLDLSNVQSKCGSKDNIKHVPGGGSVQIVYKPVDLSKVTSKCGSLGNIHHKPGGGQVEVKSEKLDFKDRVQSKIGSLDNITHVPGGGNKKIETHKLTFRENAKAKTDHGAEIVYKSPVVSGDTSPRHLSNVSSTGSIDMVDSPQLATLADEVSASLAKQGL
Overlap between Fluorescence from tested compound and fluorescence from 4G8 observed [4],Fluorescence from tested compound observed [4],Fluorescence from 4G8 observed [4],Fluorescence from tested compound observed [6],Overlap between Fluorescence from tested compound and fluorescence from AT-100 observed [6],Fluorescence from AT-100 observed [6],Overlap between Fluorescence from Example Compound 3b and fluorescence from q-FTAA-CN [7],Structure (SMILES),Deposits labelled [1],Fluorescence from PBB3 observed ([2]; FIG. 7E),Deposits labelled [2],"Fluorescence from PBB3 observed [3, 8]",Excitation and emission spectra when switching solvent from DMSO to PBS [5],Labelling of immune-positive NFTs and dystrophic neurites [6],Fluorescence from Example Compound 3b observed ([2]; FIG. 7E),Overlap between Fluorescence from Example Compound 3b and fluorescence from PBB3 ([2]; FIG. 7E),Selectivity and affinity for tau deposits compared with PBB3 [2],Fluorescence from Example Compound 3b observed [7],"Fluorescence from Example Compound 3b observed [3, 8]","Fluorescence from Example Compound 3b observed ([3]; FIG. 7G, pre-incubated in PBS only, 10 nM Example Compound 3b)"
,,,,,,,"CNc1ccc(/C=C/C=C/c2nc3ccc(O)cc3s2)cn1 [PBB3, reference compound]",labelled both Aβ and tau deposits,yes,Aβ deposits were visualized by the fluorescence from PBB3,both the Aβ and tau deposits exhibited strong PBB3 fluorescence and yes,,,,,,,,
no correlation and no,yes,yes,yes,yes,yes,,COC(=O)c1ccc(-c2ccc(/C=C/c3nc4ccccc4s3)s2)s1 [Example Compound 8a],,,,,"solvatochromatic behavior rendering a blue-shifted excitation spectrum, as well as a red-shifted emission spectrum",labelled both immune-positive NFTs and dystrophic neurites,,,,,,
no correlation and no,yes,yes,yes,yes,yes,yes,CC[n+]1c(/C=C/c2ccc(-c3ccc(I)s3)s2)sc2ccccc21 [Example Compound 3b],,,"tau deposits, NFTs and dystrophic neurites, displayed characteristic emission",,,labelled both immune-positive NFTs and dystrophic neurites,yes,no,higher selectivity and most likely a higher affinity for tau deposits than PBB3,observed from the tau aggregates and could easily be observed from the q-FTAA-CN positive NFTs as well as from q-FTAA-CN negative dystrophic neurites and yes,no observable Example Compound 3b fluorescence and no,fluorescence was observed from the tau aggregates and yes

# — patent US11434237B2, “Selective ligands for tau aggregates” (KARIN & STEN MORTSTEDT CBD SOLUTIONS AB, priority 2017, dated 2022)
